{
  "source": "patent US7119182B1",
  "about": "(The Regents of the University of California, priority 1991, dated 2006)",
  "key": {"thrombin": {"molecular_target": "thrombin (Homo sapiens, UniProt P00734)", "experiment": "Inhibition of thrombin-induced platelet activation (ATP secretion) by thrombin inhibitor peptides", "type": "cell-based", "method": "(§1) About 20 μl Chromolume® reagent (Chronolog Corporation, Havertown, Pa.) is added. In addition to measuring aggregation, ATP secretion is assessed. […] Platelet ATP secretion is measured in a lumiaggregometer as luminescence signal. […] Preincubation is not necessary for testing agonists or antagonists which interact directly with the receptor.\nThree antagonist peptides of the invention […] (LDPRP peptide) (SEQ ID NO:74), F^†[…] (F^†PRP peptide) (SEQ ID NO:224) and […] (shortened LDPRP peptide) (SEQ ID NO:190), were tested for their ability to inhibit thrombin-induced platelet activation. […] The mixtures were added in a total volume of 20 μl phosphate buffered saline to 480 μl of platelets prepared and suspended as described in the description under the heading “Assays” hereinabove. Various concentrations of the candidate peptides were used."}, "thrombin receptor": {"molecular_target": "T1, thrombin receptor (Homo sapiens, UniProt P25116)", "T1 construct": "In this assay, washed human platelets are prepared by the method of Baenzinger; endogenous in cells; host or cells: washed human platelets", "T1 sequence (P25116 22-425)": "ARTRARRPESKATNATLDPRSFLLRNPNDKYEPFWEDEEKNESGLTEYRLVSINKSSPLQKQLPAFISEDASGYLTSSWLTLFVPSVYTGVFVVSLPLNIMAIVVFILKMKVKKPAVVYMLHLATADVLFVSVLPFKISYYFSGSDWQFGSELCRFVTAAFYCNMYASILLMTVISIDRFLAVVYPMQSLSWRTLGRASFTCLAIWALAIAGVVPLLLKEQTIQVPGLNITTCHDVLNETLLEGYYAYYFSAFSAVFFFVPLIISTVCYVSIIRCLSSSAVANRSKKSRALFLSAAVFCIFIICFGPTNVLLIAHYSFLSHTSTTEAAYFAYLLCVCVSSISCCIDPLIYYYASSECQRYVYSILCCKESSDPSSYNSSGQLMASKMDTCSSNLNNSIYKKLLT", "experiment": "Platelet activation/aggregation assays in the presence of thrombin, antagonist peptides", "type": "cell-based", "details": "read-out: IC50 (50% inhibition of activation or aggregation)", "method": "Platelet Aggregation: In this assay, washed human platelets are prepared by the method of Baenzinger, M. G., Meth Enzymol (1974) 31:149–155, or as described by Charo, I. F., et al., J Clin Invest (1977) 63:866–873.\nWashed platelets are suspended in modified Tyrode's buffer, pH 7.4 with 2 mM magnesium and 1 mM calcium at a concentration of 10^8 platelets/ml.\nas §1\nPlatelet Aggregation Assay Using Microtiter Plates: Thrombin- or agonist-mediated platelet aggregation as measured with washed platelets in 96-well microtiter plates was performed as described (Fratantoni, J. C. et al., Am J Clin Pathol (1990) 94:613–617)."}, "[1]": {"molecular_target": "T2, wild-type thrombin receptor (Homo sapiens, UniProt P25116, C364S/L238V)", "T2 construct": "expressed in transfected cells; host or cells: Xenopus laevis oocytes microinjected with cRNA", "T2 sequence (P25116 22-425 L238V/C364S)": "T1 sequence (P25116 22-425) with L217V, C343S", "experiment": "^45Ca release by oocytes expressing wild-type thrombin receptor cRNA", "type": "cell-based", "details": "control peptide added at 100 μM", "method": "(§2) Briefly, intracellular calcium pools are labeled by incubating groups of 30 oocytes in 300 μl calcium-free MBSH containing 50 μCi ^45CaCl2 (10–40 mCi/mg Ca; Amersham) for 4 hours at RT. The labeled oocytes are washed, then incubated in MBSH II without antibiotics for 90 minutes. Groups of 5 oocytes are selected and placed in individual wells in a 24-well tissue culture plate (Falcon 3047) containing 0.5 ml/well MBSH II without antibiotics. This medium is removed and replaced with fresh medium every 10 minutes; the harvested medium is analyzed by scintillation counting to determine ^45Ca released by the oocytes during each 10-minute incubation. The 10-minute incubations are continued until a stable baseline of ^45Ca release per unit time is achieved. Two additional 10-minute collections are obtained, then test medium including agonist is added and agonist-induced ^45Ca release determined.\n(§3) The control peptide […] (FSLL peptide) (SEQ ID NO:107) was added at 100 μM and elicited no response."}, "washed human platelets [2]": {"molecular_target": "T3, washed human platelets (Homo sapiens, UniProt P25116)", "T3 sequence (P25116 42-425)": "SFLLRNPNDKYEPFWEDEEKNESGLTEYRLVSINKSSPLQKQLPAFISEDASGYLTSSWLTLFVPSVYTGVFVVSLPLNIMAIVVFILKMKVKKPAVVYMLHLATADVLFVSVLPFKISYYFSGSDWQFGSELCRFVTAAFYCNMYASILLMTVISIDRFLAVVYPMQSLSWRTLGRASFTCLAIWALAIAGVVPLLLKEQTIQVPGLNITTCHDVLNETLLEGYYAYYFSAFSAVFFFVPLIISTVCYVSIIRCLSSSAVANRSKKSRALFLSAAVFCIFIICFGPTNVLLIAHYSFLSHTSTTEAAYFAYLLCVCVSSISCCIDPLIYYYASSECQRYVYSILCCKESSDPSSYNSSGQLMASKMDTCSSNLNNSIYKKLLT", "experiment": "Platelet ATP secretion in response to agonist peptide", "type": "cell-based", "details": "for Platelet ATP secretion activity of control peptides: concentrations as high as 200 μM (not shown)", "method": "as §1\nWashed human platelets were prepared as described by Baenzinger, N. G., Meth Enz (1974) 31:149–155; and Charo, I. F., et al., J Clin Invest (1977) 63:866–873. Agonist-induced responses were assessed as described above.\nPlatelet ATP secretion in response to the indicated final concentrations of “new amino-terminal” peptide was also followed by lumiaggregometry, and the results are shown in FIG. 4.\nThe data shown in FIG. 4 are raw tracings representative of aggregation or secretion responses obtained in triplicate for each agonist concentration, and are representative of results obtained in more than five separate experiments."}, "washed human platelets [3]": {"molecular_target": "T3, washed human platelets", "details": "for Platelet aggregation activity of control peptides: concentrations as high as 200 μM (not shown)"}, "uninjected oocytes": {"system": "uninjected oocytes", "experiment": "Agonist activity on uninjected oocytes", "type": "cell-based, Xenopus laevis", "details": "uninjected oocytes (not shown)", "method": "as §2, §3\nThe agonist SFLL peptide has no activity on uninjected oocytes (not shown). Qualitatively identical results were obtained when agonist-induced inward current in voltage-clamped oocytes was used as an endpoint rather than agonist-induced ^45Ca release."}, "CCL-39 cells": {"system": "CCL-39 cells", "experiment": "Mitogenic effect, tritiated thymidine incorporation in CCL-39 fibroblasts", "type": "cell-based, hamster", "details": "100 μM, 48 hours, quiescent CCL-39 in serum-free medium; FIG. 5", "method": "The fibroblast cell line CCL-39 was made quiescent in serum-free medium and then treated for 48 hours with the candidate agonist in the presence of tritiated thymidine. The incorporation of label into DNA was then determined as TCA-insoluble activity, shown as cpm in FIG. 5 using standard techniques. The data shown in the figure represent the mean of six replicate determinations plus or minus 95% confidence."}},
  "note": "Where a chain is given by its changes, count along the chain named. Square brackets hold non-standard residues; d marks the D form. Peptide text beside a SMILES is read from it. * marks the point of attachment. Cha = N[C@@H](CC1CCCCC1)C(=O)O; Piv = CC(C)(C)C(=O)*; Mpa = O=C(O)CCS",
  "data": [
    {"compound": "CC(C)C[C@H](NC(=O)[C@H](CC(C)C)NC(=O)[C@H](Cc1ccccc1)NC(=O)[C@@H]1CCCN1C(=O)[C@H](CCCNC(=N)N)NC(=O)[C@@H]1CCCN1C(=O)[C@H](N)Cc1ccccc1)C(=O)N[C@@H](CCCNC(=N)N)C(=O)N[C@@H](CC(N)=O)C(=O)N1CCC[C@H]1C(=O)N[C@@H](CC(N)=O)C(=O)N[C@@H](CC(=O)O)C(=O)N[C@@H](CCCCN)C(=O)N[C@@H](Cc1ccc(O)cc1)C(=O)N[C@@H](CCC(=O)O)C(=O)N1CCC[C@H]1C(=O)N[C@@H](Cc1ccccc1)C(=O)N[C@@H](Cc1c[nH]c2ccccc12)C(=O)N[C@@H](CCC(=O)O)C(=O)N[C@@H](CC(=O)O)C(=O)N[C@@H](CCC(=O)O)C(=O)N[C@@H](CCC(=O)O)C(=O)N[C@@H](CCCCN)C(=O)N[C@@H](CC(N)=O)C(=O)N[C@@H](CCC(=O)O)C(=O)N[C@@H](CO)C(=O)O", "note": "[F^†PRP peptide] (H-[dF]PRPFLLRNPNDKYEPFWEDEEKNES-OH)", "values": [
      {"measurement": "IC50", "setting": "thrombin", "value": "~0.2", "unit": "µM"}
    ]},
    {"compound": "N=C(N)NCCC[C@H](NC(=O)[C@H](CC1CCCCC1)NC(=O)[C@H](CC1CCCCC1)NC(=O)[C@H](Cc1ccccc1)NC(=O)CCS)C(=O)N[C@@H](CC(N)=O)C(=O)N1CCC[C@H]1C(=O)N[C@@H](CC(N)=O)C(=O)N[C@@H](CC(=O)O)C(N)=O", "note": "[Mpr-F(Cha) (Cha)RNPND-NH2] ([Mpa]F[Cha][Cha]RNPND-NH2)", "values": [
      {"measurement": "IC50", "setting": "thrombin receptor", "value": 50, "unit": "µM"}
    ]},
    {"compound": "C[C@H](NC(=O)[C@H](CC(=O)O)NC(=O)[C@H](CC(N)=O)NC(=O)[C@@H]1CCCN1C(=O)[C@H](CC(N)=O)NC(=O)[C@H](CCCNC(=N)N)NC(=O)[C@H](CC1CCCCC1)NC(=O)[C@H](CC1CCCCC1)NC(=O)[C@H](Cc1ccccc1)NC(=O)CCS)C(N)=O", "note": "[Mpr-F(Cha) (Cha)RNPNDA-NH2] ([Mpa]F[Cha][Cha]RNPNDA-NH2)", "values": [
      {"measurement": "IC50", "setting": "thrombin receptor", "value": 50, "unit": "µM"}
    ]},
    {"compound": "N=C(N)NCCC[C@H](NC(=O)[C@H](CC1CCCCC1)NC(=O)[C@H](CC1CCCCC1)NC(=O)[C@H](Cc1ccccc1)NC(=O)CCS)C(=O)N[C@@H](CC(N)=O)C(=O)N1CCC[C@H]1C(=O)N[C@@H](CC(N)=O)C(=O)N[C@@H](CC(=O)O)C(=O)N[C@@H](CCCCN)C(=O)N[C@@H](Cc1ccc(O)cc1)C(N)=O", "note": "[Mpr-F(Cha) (Cha)RNPNDKY-NH2] ([Mpa]F[Cha][Cha]RNPNDKY-NH2)", "values": [
      {"measurement": "IC50", "setting": "thrombin receptor", "value": 75, "unit": "µM"}
    ]},
    {"compound": "N=C(N)NCCC[C@H](NC(=O)[C@H](CC1CCCCC1)NC(=O)[C@H](CC1CCCCC1)NC(=O)[C@H](Cc1ccccc1)NC(=O)CCS)C(=O)N[C@@H](CC(N)=O)C(=O)N1CCC[C@H]1C(=O)N[C@@H](CC(N)=O)C(=O)N[C@@H](CC(=O)O)C(=O)N[C@@H](CCCCN)C(=O)N[C@@H](Cc1ccc(O)cc1)C(=O)O", "note": "[Mpr-F(Cha) (Cha)RNPNDKY] ([Mpa]F[Cha][Cha]RNPNDKY-OH)", "values": [
      {"measurement": "IC50", "setting": "thrombin receptor", "value": 40, "unit": "µM"}
    ]},
    {"compound": "CC(C)C[C@H](NC(=O)[C@H](CC(C)C)NC(=O)[C@H](Cc1ccccc1)NC(=O)C(C)(C)C)C(=O)N[C@@H](CCCNC(=N)N)C(N)=O", "note": "[Pivaloyl-FLLR-NH2] (Piv-FLLR-NH2)", "values": [
      {"measurement": "IC50", "setting": "thrombin receptor", "value": 1000, "unit": "µM"}
    ]},
    {"compound": "FSLLRNPNDKYEPF [FSLL peptide]", "values": [
      {"measurement": "peptide-induced ^45Ca release response", "setting": "[1]", "value": "no response"},
      {"measurement": "Platelet ATP secretion activity of control peptides", "setting": "washed human platelets [2]", "value": "without activity"},
      {"measurement": "Platelet aggregation activity of control peptides", "setting": "washed human platelets [3]", "value": "without activity"}
    ]},
    {"compound": "LLRNPNDKYEPF [reference compound]", "values": [
      {"measurement": "Platelet ATP secretion activity of control peptides", "setting": "washed human platelets [2]", "value": "without activity"},
      {"measurement": "Platelet aggregation activity of control peptides", "setting": "washed human platelets [3]", "value": "without activity"}
    ]},
    {"compound": "SFLLRNPNDKYEPF [“SFLL” peptide]", "values": [
      {"measurement": "Platelet ATP secretion compared with thrombin", "setting": "washed human platelets [2]; peptide at 100 μM, FIG. 4", "value": "comparably active to 20 μM thrombin"},
      {"measurement": "Platelet aggregation compared with thrombin", "setting": "washed human platelets [3]; peptide at 100 μM, FIG. 4", "value": "comparably active to 20 μM thrombin"},
      {"measurement": "agonist activity on uninjected oocytes", "setting": "uninjected oocytes", "value": "no activity"},
      {"measurement": "mitogenic effect (tritiated thymidine incorporation into DNA)", "setting": "CCL-39 cells", "value": "significant stimulation of growth"}
    ]}
  ]
}
